The values that follow are results of earlier work, collected in patent EP1911850A1, “Method of producing 6-thio-sialylated glycoproteins and glycoconjugates” (CENTRE NATIONAL DE LA RECHERCHE SCIENTIFIQUE (CNRS), priority 2006, dated 2008).

The data set has as its system a galactosidase. Particulars: background statement; comparator not stated.

With `CC(=O)N[C@H]1C(O)O[C@H](CO)[C@@H](O[C@@H]2S[C@H](CO)[C@H](O)[C@H](O)[C@H]2O)[C@@H]1O` (stereo partly shown) [5'-Thio-N-acetyllactosamine], the “increased stability to digestion by a galactosidase” value is on record as 200 fold.
